Test results: PMC7156458, “Synthetic biology based construction of biological activity-related library of fungal decalin-containing diterpenoid pyrones” (Nature Communications, 2020)

Molecular target: Aβ42 (Homo sapiens, UniProt P05067)
Assay: Th-T (thioflavin-T) assay of Aβ42 aggregation
Type: biochemical
Settings: for Th-T fluorescence of Aβ42 (sheet Fig. 7a), mean of three wells: head suffix _50 (concentration 50); for Th-T assay plate reading, mean of three wells (Supplementary Fig. 47): source data, Ab alone and No Ab as controls; for Th-T fluorescence, mean of three wells: Supplementary Fig. 47 source data

Aβ42, sequence (P05067 672-713): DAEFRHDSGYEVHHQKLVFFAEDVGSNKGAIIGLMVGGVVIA

## C=C1CC[C@@H]2[C@](C)(CC[C@H]3O[C@H](C=C(C)C)C[C@@]23C)[C@@H]1Cc1c(OC)oc(CO)c(C(=O)OC)c1=O [Compound 21]
Reading M73
  Th-T fluorescence of Aβ42 (sheet Fig. 7a), mean of three wells: 0.2746
Reading M74
  Th-T fluorescence of Aβ42 (sheet Fig. 7a), mean of three wells: 0.2806
Reading M75
  Th-T fluorescence of Aβ42 (sheet Fig. 7a), mean of three wells: 0.286
Reading M76
  Th-T fluorescence of Aβ42 (sheet Fig. 7a), mean of three wells: 0.2937
Reading M77
  Th-T fluorescence of Aβ42 (sheet Fig. 7a), mean of three wells: 0.3019
Reading M78
  Th-T fluorescence of Aβ42 (sheet Fig. 7a), mean of three wells: 0.3119
Reading M79
  Th-T fluorescence of Aβ42 (sheet Fig. 7a), mean of three wells: 0.3191
Reading M80
  Th-T fluorescence of Aβ42 (sheet Fig. 7a), mean of three wells: 0.3266
Reading M81
  Th-T fluorescence of Aβ42 (sheet Fig. 7a), mean of three wells: 0.339
Reading M82
  Th-T fluorescence of Aβ42 (sheet Fig. 7a), mean of three wells: 0.3487
Reading M83
  Th-T fluorescence of Aβ42 (sheet Fig. 7a), mean of three wells: 0.3612
Reading M84
  Th-T fluorescence of Aβ42 (sheet Fig. 7a), mean of three wells: 0.3714
Measurement M1
  Th-T assay plate reading, mean of three wells (Supplementary Fig. 47): 0.221
Measurement M2
  Th-T assay plate reading, mean of three wells (Supplementary Fig. 47): 0.2228
Measurement M3
  Th-T assay plate reading, mean of three wells (Supplementary Fig. 47): 0.2221
Measurement M4
  Th-T assay plate reading, mean of three wells (Supplementary Fig. 47): 0.222
Measurement M5
  Th-T assay plate reading, mean of three wells (Supplementary Fig. 47): 0.2108
Measurement M6
  Th-T assay plate reading, mean of three wells (Supplementary Fig. 47): 0.2062
Measurement M7
  Th-T assay plate reading, mean of three wells (Supplementary Fig. 47): 0.1997
Measurement M8
  Th-T assay plate reading, mean of three wells (Supplementary Fig. 47): 0.1959
Measurement M9
  Th-T assay plate reading, mean of three wells (Supplementary Fig. 47): 0.193
Measurement M10
  Th-T assay plate reading, mean of three wells (Supplementary Fig. 47): 0.1931
Measurement M11
  Th-T assay plate reading, mean of three wells (Supplementary Fig. 47): 0.1918
Measurement M12
  Th-T assay plate reading, mean of three wells (Supplementary Fig. 47): 0.1925
Measurement M13
  Th-T assay plate reading, mean of three wells (Supplementary Fig. 47): 0.1929
Measurement M14
  Th-T assay plate reading, mean of three wells (Supplementary Fig. 47): 0.1925
Measurement M15
  Th-T assay plate reading, mean of three wells (Supplementary Fig. 47): 0.1938
Measurement M16
  Th-T assay plate reading, mean of three wells (Supplementary Fig. 47): 0.1946
Reading M107, compound at 10 (head suffix _10)
  Th-T fluorescence, mean of three wells (Fig. 7a): 1.6819
Reading M107, compound at 20 (head suffix _20)
  Th-T fluorescence, mean of three wells (Fig. 7a): 0.9322
Reading M107, compound at 50 (head suffix _50)
  Th-T fluorescence, mean of three wells (Fig. 7a): 0.4795
Reading M108, compound at 10 (head suffix _10)
  Th-T fluorescence, mean of three wells (Fig. 7a): 1.643
Reading M108, compound at 20 (head suffix _20)
  Th-T fluorescence, mean of three wells (Fig. 7a): 0.9316
Reading M108, compound at 50 (head suffix _50)
  Th-T fluorescence, mean of three wells (Fig. 7a): 0.4805
Reading M109, compound at 10 (head suffix _10)
  Th-T fluorescence, mean of three wells (Fig. 7a): 1.641
Reading M109, compound at 20 (head suffix _20)
  Th-T fluorescence, mean of three wells (Fig. 7a): 0.9416
Reading M109, compound at 50 (head suffix _50)
  Th-T fluorescence, mean of three wells (Fig. 7a): 0.4841
Reading M110, compound at 10 (head suffix _10)
  Th-T fluorescence, mean of three wells (Fig. 7a): 1.6563
Reading M110, compound at 20 (head suffix _20)
  Th-T fluorescence, mean of three wells (Fig. 7a): 0.9358
Reading M110, compound at 50 (head suffix _50)
  Th-T fluorescence, mean of three wells (Fig. 7a): 0.4823
Reading M111, compound at 10 (head suffix _10)
  Th-T fluorescence, mean of three wells (Fig. 7a): 1.67
Reading M111, compound at 20 (head suffix _20)
  Th-T fluorescence, mean of three wells (Fig. 7a): 0.9311
Reading M111, compound at 50 (head suffix _50)
  Th-T fluorescence, mean of three wells (Fig. 7a): 0.4866
Reading M112, compound at 10 (head suffix _10)
  Th-T fluorescence, mean of three wells (Fig. 7a): 1.658
Reading M112, compound at 20 (head suffix _20)
  Th-T fluorescence, mean of three wells (Fig. 7a): 0.9334
Reading M112, compound at 50 (head suffix _50)
  Th-T fluorescence, mean of three wells (Fig. 7a): 0.4858
Reading M113, compound at 10 (head suffix _10)
  Th-T fluorescence, mean of three wells (Fig. 7a): 1.671
Reading M113, compound at 20 (head suffix _20)
  Th-T fluorescence, mean of three wells (Fig. 7a): 0.9626
Reading M113, compound at 50 (head suffix _50)
  Th-T fluorescence, mean of three wells (Fig. 7a): 0.4847
Reading M114, compound at 10 (head suffix _10)
  Th-T fluorescence, mean of three wells (Fig. 7a): 1.656
Reading M114, compound at 20 (head suffix _20)
  Th-T fluorescence, mean of three wells (Fig. 7a): 0.941
Reading M114, compound at 50 (head suffix _50)
  Th-T fluorescence, mean of three wells (Fig. 7a): 0.488
Reading M115, compound at 10 (head suffix _10)
  Th-T fluorescence, mean of three wells (Fig. 7a): 1.673
Reading M115, compound at 20 (head suffix _20)
  Th-T fluorescence, mean of three wells (Fig. 7a): 0.9605
Reading M115, compound at 50 (head suffix _50)
  Th-T fluorescence, mean of three wells (Fig. 7a): 0.4915
Reading M116, compound at 10 (head suffix _10)
  Th-T fluorescence, mean of three wells (Fig. 7a): 1.71
Reading M116, compound at 20 (head suffix _20)
  Th-T fluorescence, mean of three wells (Fig. 7a): 0.9595
Reading M116, compound at 50 (head suffix _50)
  Th-T fluorescence, mean of three wells (Fig. 7a): 0.4913
Reading M117, compound at 10 (head suffix _10)
  Th-T fluorescence, mean of three wells (Fig. 7a): 1.657
Reading M117, compound at 20 (head suffix _20)
  Th-T fluorescence, mean of three wells (Fig. 7a): 0.9521
Reading M117, compound at 50 (head suffix _50)
  Th-T fluorescence, mean of three wells (Fig. 7a): 0.4909
Reading M118, compound at 10 (head suffix _10)
  Th-T fluorescence, mean of three wells (Fig. 7a): 1.7
Reading M118, compound at 20 (head suffix _20)
  Th-T fluorescence, mean of three wells (Fig. 7a): 0.9478
Reading M118, compound at 50 (head suffix _50)
  Th-T fluorescence, mean of three wells (Fig. 7a): 0.4918
Reading M119, compound at 10 (head suffix _10)
  Th-T fluorescence, mean of three wells (Fig. 7a): 1.686
Reading M119, compound at 20 (head suffix _20)
  Th-T fluorescence, mean of three wells (Fig. 7a): 0.9445
Reading M119, compound at 50 (head suffix _50)
  Th-T fluorescence, mean of three wells (Fig. 7a): 0.4929
Reading M120, compound at 10 (head suffix _10)
  Th-T fluorescence, mean of three wells (Fig. 7a): 1.675
Reading M120, compound at 20 (head suffix _20)
  Th-T fluorescence, mean of three wells (Fig. 7a): 0.9469
Reading M120, compound at 50 (head suffix _50)
  Th-T fluorescence, mean of three wells (Fig. 7a): 0.4937
Reading M121, compound at 10 (head suffix _10)
  Th-T fluorescence, mean of three wells (Fig. 7a): 1.7005
Reading M121, compound at 20 (head suffix _20)
  Th-T fluorescence, mean of three wells (Fig. 7a): 0.9507
Reading M121, compound at 50 (head suffix _50)
  Th-T fluorescence, mean of three wells (Fig. 7a): 0.4951
Reading M122, compound at 10 (head suffix _10)
  Th-T fluorescence, mean of three wells (Fig. 7a): 1.701
Reading M122, compound at 20 (head suffix _20)
  Th-T fluorescence, mean of three wells (Fig. 7a): 0.9556
Reading M122, compound at 50 (head suffix _50)
  Th-T fluorescence, mean of three wells (Fig. 7a): 0.493
Reading M123, compound at 10 (head suffix _10)
  Th-T fluorescence, mean of three wells (Fig. 7a): 1.651
Reading M123, compound at 20 (head suffix _20)
  Th-T fluorescence, mean of three wells (Fig. 7a): 0.9514
Reading M123, compound at 50 (head suffix _50)
  Th-T fluorescence, mean of three wells (Fig. 7a): 0.4951
Reading M124, compound at 10 (head suffix _10)
  Th-T fluorescence, mean of three wells (Fig. 7a): 1.705
Reading M124, compound at 20 (head suffix _20)
  Th-T fluorescence, mean of three wells (Fig. 7a): 0.9577
Reading M124, compound at 50 (head suffix _50)
  Th-T fluorescence, mean of three wells (Fig. 7a): 0.4977
Reading M125, compound at 10 (head suffix _10)
  Th-T fluorescence, mean of three wells (Fig. 7a): 1.692
Reading M125, compound at 20 (head suffix _20)
  Th-T fluorescence, mean of three wells (Fig. 7a): 0.9599
Reading M125, compound at 50 (head suffix _50)
  Th-T fluorescence, mean of three wells (Fig. 7a): 0.4931
Reading M126, compound at 10 (head suffix _10)
  Th-T fluorescence, mean of three wells (Fig. 7a): 1.704
Reading M126, compound at 20 (head suffix _20)
  Th-T fluorescence, mean of three wells (Fig. 7a): 0.9491
Reading M126, compound at 50 (head suffix _50)
  Th-T fluorescence, mean of three wells (Fig. 7a): 0.4978
Reading M127, compound at 10 (head suffix _10)
  Th-T fluorescence, mean of three wells (Fig. 7a): 1.72
Reading M127, compound at 20 (head suffix _20)
  Th-T fluorescence, mean of three wells (Fig. 7a): 0.9533
Reading M127, compound at 50 (head suffix _50)
  Th-T fluorescence, mean of three wells (Fig. 7a): 0.4965
Reading M128, compound at 10 (head suffix _10)
  Th-T fluorescence, mean of three wells (Fig. 7a): 1.676
Reading M128, compound at 20 (head suffix _20)
  Th-T fluorescence, mean of three wells (Fig. 7a): 0.9486
Reading M128, compound at 50 (head suffix _50)
  Th-T fluorescence, mean of three wells (Fig. 7a): 0.4971
time-course reading M97
  Th-T fluorescence, mean of three wells: 1.027
time-course reading M98
  Th-T fluorescence, mean of three wells: 1.0353
time-course reading M99
  Th-T fluorescence, mean of three wells: 1.027
time-course reading M100
  Th-T fluorescence, mean of three wells: 1.023
time-course reading M101
  Th-T fluorescence, mean of three wells: 1.038
time-course reading M102
  Th-T fluorescence, mean of three wells: 1.048
time-course reading M103
  Th-T fluorescence, mean of three wells: 1.038
time-course reading M104
  Th-T fluorescence, mean of three wells: 1.045
time-course reading M105
  Th-T fluorescence, mean of three wells: 1.028
time-course reading M106
  Th-T fluorescence, mean of three wells: 1.044
time-course reading M107
  Th-T fluorescence, mean of three wells: 1.045
time-course reading M108
  Th-T fluorescence, mean of three wells: 1.036
time-course reading M109
  Th-T fluorescence, mean of three wells: 1.034
time-course reading M110
  Th-T fluorescence, mean of three wells: 1.043
time-course reading M111
  Th-T fluorescence, mean of three wells: 1.041
time-course reading M112
  Th-T fluorescence, mean of three wells: 1.036
time-course reading M113
  Th-T fluorescence, mean of three wells: 1.022
time-course reading M114
  Th-T fluorescence, mean of three wells: 1.039
time-course reading M115
  Th-T fluorescence, mean of three wells: 1.052
time-course reading M116
  Th-T fluorescence, mean of three wells: 1.042
